biological target: Human complement C1s enzyme (Homo sapiens (Human), UniProt P09871); assay: Human C1s enzyme assay; assay type: biochemical; details: Human C1s enzyme assay of Example 3; read-out: IC50 (Stars)
Outline: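 Purified serum-derived human C1s (1.16 nM final) preincubated 5 min at room temperature with compound in 50 mM Tris, 1 M NaCl, pH 7.5. Z-L-Lys-SBzl thioester substrate and DTNB added (100 μM each, final); A405 read every 30 s for 30 min. IC50 from nonlinear regression of reaction rates against compound concentration.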

Human complement C1s enzyme, sequence (P09871 438-688 limits assumed): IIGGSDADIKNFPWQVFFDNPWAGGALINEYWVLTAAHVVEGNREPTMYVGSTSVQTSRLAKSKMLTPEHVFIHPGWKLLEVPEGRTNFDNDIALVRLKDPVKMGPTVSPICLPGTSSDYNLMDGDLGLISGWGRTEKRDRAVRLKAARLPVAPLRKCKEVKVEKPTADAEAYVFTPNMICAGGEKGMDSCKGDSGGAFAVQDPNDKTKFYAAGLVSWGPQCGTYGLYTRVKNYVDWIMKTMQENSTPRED
Human complement C1s enzyme, sequence (P09871 16-437 partner limits assumed): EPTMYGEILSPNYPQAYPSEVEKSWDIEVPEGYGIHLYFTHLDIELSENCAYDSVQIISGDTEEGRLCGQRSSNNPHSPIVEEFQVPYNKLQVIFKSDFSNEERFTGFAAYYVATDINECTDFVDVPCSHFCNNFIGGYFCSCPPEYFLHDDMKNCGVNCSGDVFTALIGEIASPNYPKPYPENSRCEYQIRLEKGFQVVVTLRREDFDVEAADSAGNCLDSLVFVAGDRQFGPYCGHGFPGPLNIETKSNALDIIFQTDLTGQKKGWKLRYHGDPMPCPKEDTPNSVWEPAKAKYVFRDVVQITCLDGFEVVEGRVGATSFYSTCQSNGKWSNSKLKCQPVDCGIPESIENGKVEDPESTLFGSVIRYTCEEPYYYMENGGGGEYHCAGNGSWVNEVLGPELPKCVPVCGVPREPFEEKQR

Row | IC50 | SMILES
1 | < 0.1 µM | Nc1cnc(-c2csc(CNC(=O)[C@@H]3CC4(CN3C(=O)CNC(=O)c3ccc(Oc5ccc(F)cc5)cc3)OCCO4)c2)s1 [Compound 185, (S)—N-((4-(5-aminothiazol-2-yl)thiophen-2-yl)methyl)-7-((4-(4-fluorophenoxy)benzoyl)glycyl)-1,4-dioxa-7-azaspiro[4.4]nonane-8-carboxamide]
2 | < 0.1 µM | C[C@@H](NC(=O)[C@@H]1CC2(CN1C(=O)CNC(=O)c1ccc(-c3ccc(Cl)cc3F)cc1)OCCO2)c1cc(C(=N)N)cs1 [Compound 174, (S)—N—((R)-1-(4-carbamimidoylthiophen-2-yl)ethyl)-7-((4′-chloro-2′-fluoro-[1,1′-biphenyl]-4-carbonyl)glycyl)-1,4-dioxa-7-azaspiro[4.4]nonane-8-carboxamide]

Further lines, the compound ahead of its results:

Row | SMILES | IC50
3 | CC(=O)ONC(=N)c1csc([C@@H](C)NC(=O)[C@@H]2CC3(CN2C(=O)CNC(=O)c2ccc4c(c2)-c2ccccc2C4(F)F)OCCO3)c1 [Compound 125, (S)—N—((R)-1-(4-(N-acetoxycarbamimidoyl)thiophen-2-yl)ethyl)-7-((9,9-difluoro-9H-fluorene-3-carbonyl)glycyl)-1,4-dioxa-7-azaspiro[4.4]nonane-8-carboxamide] | < 0.1 µM
4 | C[C@@H](NC(=O)[C@@H]1CC2(CN1C(=O)CNC(=O)c1ccc(-c3ccc(F)cc3)cc1)OCCO2)c1cc(C(=N)N)cs1 [Compound 101, (S)—N—((R)-1-(4-carbamimidoylthiophen-2-yl)ethyl)-7-((4′-fluoro-[1,1′-biphenyl]-4-carbonyl)glycyl)-1,4-dioxa-7-azaspiro[4.4]nonane-8-carboxamide] | < 0.1 µM
5 | C[C@@H](NC(=O)[C@@H]1C[C@@H](OC(F)F)CN1C(=O)CNC(=O)c1ccc(C(F)(F)c2ccccc2)cc1)c1cc(C(=N)N)cs1 [Compound 131, (2S,4R)—N—((R)-1-(4-carbamimidoylthiophen-2-yl)ethyl)-1-((4-(difluoro(phenyl)methyl)benzoyl)glycyl)-4-(difluoromethoxy)pyrrolidine-2-carboxamide] | < 0.1 µM
6 | C[C@H]1C[C@@H](C(=O)N[C@H](C)c2cc(C(=N)N)cs2)N(C(=O)CNC(=O)c2ccc3c(c2)-c2ccccc2C3(F)F)C1 [Compound 46, (2S,4S)—N—((R)-1-(4-carbamimidoylthiophen-2-yl)ethyl)-1-((9,9-difluoro-9H-fluorene-3-carbonyl)glycyl)-4-methylpyrrolidine-2-carboxamide] | < 0.1 µM
7 | CC(C)c1ccc(Oc2ccc(C(=O)NCC(=O)N3C[C@H](OC(F)F)C[C@H]3C(=O)N[C@H](C)c3cc(C(=N)N)cs3)cc2)cc1 [Compound 47, (2S,4R)—N—((R)-1-(4-carbamimidoylthiophen-2-yl)ethyl)-4-(difluoromethoxy)-1-((4-(4-isopropylphenoxy)benzoyl)glycyl)pyrrolidine-2-carboxamide] | < 0.1 µM
8 | C[C@@H](NC(=O)[C@@H]1C[C@H](C2CCCCC2)CN1C(=O)CNC(=O)c1ccc(Oc2ccc(F)cc2)cc1)c1cc(C(=N)N)cs1 [Compound 93, (2S,4R)—N—((R)-1-(4-carbamimidoylthiophen-2-yl)ethyl)-4-cyclohexyl-1-((4-(4-fluorophenoxy)benzoyl)glycyl)pyrrolidine-2-carboxamide] | < 0.1 µM
9 | Cn1ncc2cc(-c3ccc(C(=O)NCC(=O)N4CC5(C[C@H]4C(=O)NCc4cc(C(=N)N)cs4)OCCO5)cc3)ccc21 [Compound 140, (S)—N-((4-carbamimidoylthiophen-2-yl)methyl)-7-((4-(1-methyl-1H-indazol-5-yl)benzoyl)glycyl)-1,4-dioxa-7-azaspiro[4.4]nonane-8-carboxamide] | < 0.1 µM
10 | N=C(N)c1csc(CNC(=O)[C@@H]2C[C@@H](OC(F)F)CN2C(=O)CNC(=O)c2ccc3c(c2)-c2ccccc2C3(F)F)c1 [Compound 50, (2S,4R)—N-((4-carbamimidoylthiophen-2-yl)methyl)-1-((9,9-difluoro-9H-fluorene-3-carbonyl)glycyl)-4-(difluoromethoxy)pyrrolidine-2-carboxamide] | < 0.1 µM

same assay, conditions: Human complement C1s enzyme 1.16 nM, substrate Z-L-Lys-SBzl 100 μM, assay of Example 3; read-out: IC50 (Stars)

Row | IC50 | SMILES
11 | < 0.1 µM | C[C@@H](NC(=O)[C@@H]1CC(=C(F)F)CN1C(=O)CNC(=O)c1ccc2c(c1)-c1ccccc1C2(F)F)c1cc(C(=N)N)cs1 [Compound 270, (S)—N—((R)-1-(4-carbamimidoylthiophen-2-yl)ethyl)-1-((9,9-difluoro-9H-fluorene-3-carbonyl)glycyl)-4-(difluoromethylene)pyrrolidine-2-carboxamide]
12 | > 1 µM | O=C(NCC(=O)N1CC2(C[C@H]1C(=O)NCc1cc(NC3=NCCS3)cs1)OCCO2)c1ccc(Oc2ccc(F)cc2)cc1 [Compound 284, (S)-N-((4-((4,5-dihydrothiazol-2-yl)amino)thiophen-2-yl)methyl)-7-((4-(4-fluorophenoxy)benzoyl)glycyl)-1,4-dioxa-7-azaspiro[4.4]nonane-8-carboxamide]
13 | < 0.1 µM | C[C@H](NC(=O)c1ccc(-c2ccc(F)cc2)cc1)C(=O)N1CC2(C[C@H]1C(=O)NCc1cc(C(=N)N)cs1)OCCO2 [Compound 296, (S)—N-((4-carbamimidoylthiophen-2-yl)methyl)-7-((4′-fluoro-[1,1′-biphenyl]-4-carbonyl)-L-alanyl)-1,4-dioxa-7-azaspiro[4.4]nonane-8-carboxamide]
14 | > 1 µM | O=C(NCC(=O)N1CC2(C[C@H]1C(=O)NCc1ccn[nH]1)OCCO2)c1ccc(Oc2ccccc2)cc1 [Compound 384, (S)-N-((1H-pyrazol-5-yl)methyl)-7-((4-phenoxybenzoyl)glycyl)-1,4-dioxa-7-azaspiro[4.4]nonane-8-carboxamide]
15 | < 0.1 µM | C[C@H](NC(=O)c1ccc(-c2ccccc2)cc1)C(=O)N1CC2(C[C@H]1C(=O)NCc1cc(C(=N)N)cs1)OCCO2 [Compound 300, (S)-7-(([1,1′-biphenyl]-4-carbonyl)-L-alanyl)-N-((4-carbamimidoylthiophen-2-yl)methyl)-1,4-dioxa-7-azaspiro[4.4]nonane-8-carboxamide]
16 | < 0.1 µM | C[C@@H](NC(=O)[C@@H]1C[C@@H](OC(F)F)CN1C(=O)CNC(=O)c1ccc2c(c1)oc1ccccc12)c1cc(C(=N)N)cs1 [Compound 361, (2S,4R)—N—((R)-1-(4-carbamimidoylthiophen-2-yl)ethyl)-1-((dibenzo[b,d]furan-3-carbonyl)glycyl)-4-(difluoromethoxy)pyrrolidine-2-carboxamide]

same assay, conditions: Human complement C1s enzyme 1.16 nM, substrate Z-L-Lys-SBzl; assay of Example 3; read-out: IC50 (Stars)

Row | IC50 | SMILES
17 | < 0.1 µM | CS(=O)(=O)[C@@H]1C[C@@H](C(=O)N[C@H](CO)c2cc(C(=N)N)cs2)N(C(=O)CNC(=O)c2cccc(-c3ccc(F)cc3)c2)C1 [Compound 402, (2S,4R)—N—((R)-1-(4-carbamimidoylthiophen-2-yl)-2-hydroxyethyl)-1-((4′-fluoro-[1,1′-biphenyl]-3-carbonyl)glycyl)-4-(methylsulfonyl)pyrrolidine-2-carboxamide]
18 | < 0.1 µM | CS(=O)(=O)[C@@H]1C[C@@H](C(=O)N[C@H](CO)c2cc(C(=N)N)cs2)N(C(=O)CNC(=O)c2ccc3c(c2)-c2ccccc2C3(F)F)C1 [Compound 400, (2S,4R)—N—((R)-1-(4-carbamimidoylthiophen-2-yl)-2-hydroxyethyl)-1-((9,9-difluoro-9H-fluorene-3-carbonyl)glycyl)-4-(methylsulfonyl)pyrrolidine-2-carboxamide]

From US20250346585A1 (Alexion Pharmaceuticals, Inc., priority 2022, published 2025)
